The text below walks through data of patent US20210269451A1, “PYRIDINYL HETEROCYCLYL COMPOUNDS FOR THE TREATMENT OF AUTOIMMUNE DISEASE” (Hoffmann-La Roche Inc., priority 2018, published 2021).

Structures are written as SMILES.

The target in one data set is T1, CYP2D6 (Homo sapiens, UniProt P10635).
T1 construct: tissue BD-Gentest 452117; host or cells: human liver microsomes
Briefly: CYP inhibition assay in human liver microsome. The format is in vitro ADME. As to conditions: human liver microsomes, probe dextromethorphan, dextromethorphan substrate, percentage inhibition <0: not or weak inhibitor, read-out: CYP 2D6 inhibition %@10 μM. The procedure:
The compounds would be desirable to have minimal DDI liabilities. Therefore, the effects of compounds of formula (I) or (Ia) on CYP2D6 are determined.
This is a high throughput screening assay used for assessment of reversible inhibition of CYP2D6 activity of test compounds in human liver microsome (HLM) in early discovery stage.
10 mM DMSO stock solutions of test compounds were diluted in DMSO to generate 2 mM intermediate stock solution. 250 nL of intermediate stock solution were transferred in duplicate into 3 separate 384 well microtitre plates (assay-ready plates). A mixture of HLM and each substrate was made up. 45 μL of HLM substrate mix was then transferred to each well of an assay ready plate and mixed. The negative (solvent) and positive control (standard inhibitor for CYP 2D6) were included in each assay ready plate. The assay ready plate was warmed to 37° C. in an incubator over 10 minutes. 5 μL pre-warmed NADPH regenerating system was added to each incubation well to start the reaction. Final incubation volume was 50 μL. The assay plate then was placed back in the 37° C. incubator. After 10 minutes incubation, incubates were quenched by addition of 50 μL 100% acetonitrile containing internal standards (20 ng/mL D3-Dextrorphan). The supernatants were collected for RapidFire/MS/MS analysis.
RapidFire online solid phase extraction/sample injection system (Agilent) coupled with API4000 triple quadrupole mass spectrometer (AB Sciex) were used for sample analysis. The mobile phase composed of acetonitrile and water supplemented with 0.1% formic acid. A C4 solid phase extraction cartridge is used for sample separation. MS detection is achieved in positive ion MRM mode.
Data analysis Peak areas for substrate, metabolite and internal standard are determined using the RapidFire integrator software (version 3.6.12009.12296). Peak area ratios (PAR) of metabolite and internal standard (stable-labelled metabolite) are then calculated. The measurement window for each experiment is then defined:
PAR (0% activity), average PAR for all incubations containing concentrated inhibitor; Par (100% activity), average PAR for all incubations containing no inhibitor (DMSO controls);
% Activity (test inhibitor)=
=[PAR(test inhibitor)-PAR(0% activity)]/[PAR(100% activity)-PAR(0% activity)];
% Inhibition (test inhibitor)=100-% Activity (test inhibitor).

The next data set concerns the target T2, hTLR9 (Homo sapiens, UniProt Q9NR96).
T2 sequence (Q9NR96 26-1032): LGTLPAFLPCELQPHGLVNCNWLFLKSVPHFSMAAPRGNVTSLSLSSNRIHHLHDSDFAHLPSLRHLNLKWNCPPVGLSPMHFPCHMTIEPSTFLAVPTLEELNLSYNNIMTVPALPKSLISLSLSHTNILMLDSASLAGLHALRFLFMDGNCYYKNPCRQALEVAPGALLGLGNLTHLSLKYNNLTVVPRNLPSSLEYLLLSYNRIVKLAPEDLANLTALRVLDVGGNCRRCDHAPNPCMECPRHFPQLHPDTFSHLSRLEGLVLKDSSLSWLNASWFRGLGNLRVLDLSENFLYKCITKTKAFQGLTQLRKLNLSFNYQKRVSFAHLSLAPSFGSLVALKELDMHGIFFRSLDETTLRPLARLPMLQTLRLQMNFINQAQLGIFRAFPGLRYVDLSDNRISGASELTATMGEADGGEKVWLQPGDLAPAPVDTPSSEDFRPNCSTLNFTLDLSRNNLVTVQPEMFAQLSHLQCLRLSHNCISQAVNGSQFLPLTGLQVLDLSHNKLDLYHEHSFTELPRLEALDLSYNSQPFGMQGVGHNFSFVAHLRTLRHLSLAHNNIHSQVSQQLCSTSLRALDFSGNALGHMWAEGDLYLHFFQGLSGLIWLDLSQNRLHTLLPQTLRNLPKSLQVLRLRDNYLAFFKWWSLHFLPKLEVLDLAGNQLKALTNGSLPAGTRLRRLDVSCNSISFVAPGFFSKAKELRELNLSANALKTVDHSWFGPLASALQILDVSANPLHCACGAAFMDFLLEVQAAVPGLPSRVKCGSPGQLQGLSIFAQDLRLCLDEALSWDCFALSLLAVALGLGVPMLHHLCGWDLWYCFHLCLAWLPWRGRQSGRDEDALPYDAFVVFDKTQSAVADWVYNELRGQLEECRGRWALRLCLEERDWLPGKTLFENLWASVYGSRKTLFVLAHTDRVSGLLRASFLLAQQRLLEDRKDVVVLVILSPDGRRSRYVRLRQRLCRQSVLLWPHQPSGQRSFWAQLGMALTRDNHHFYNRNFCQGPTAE
Briefly: HEK293-Blue-hTLR-9 cells assay. Type of data set: cell-based. The note with it: HEK293-Blue-hTLR9 cells, ODN2006 stimulation, 20 hrs, SEAP reporter; read-out: HEK/hTLR9 IC50. More on the design: host or cells: HEK293-Blue-hTLR-9 (HEK293). Here is the method:
The following tests were carried out in order to determine the activity of the compounds of formula (I) and (Ia) in HEK293-Blue-hTLR-7/8/9 cells assay.
HEK293-Blue-hTLR-9 cells assay:
A stable HEK293-Blue-hTLR-9 cell line was purchased from InvivoGen (Cat. #: hkb-htlr9, San Diego, Calif., USA). These cells were originally designed for studying the stimulation of human TLR9 by monitoring the activation of NE-KB. A SEAP (secreted embryonic alkaline phosphatase) reporter gene was placed under the control of the IFN-β minimal promoter fused to five NE-κB and AP-1-binding sites. The SEAP was induced by activating NE-κB and AP-1 via stimulating HEK-Blue hTLR9 cells with TLR9 ligands. Therefore the reporter expression was declined by TLR9 antagonist under the stimulation of a ligand, such as ODN2006 (Cat. #: tlrl-2006-1, Invivogen, San Diego, Calif., USA), for incubation of 20 hrs. The cell culture supernatant SEAP reporter activity was determined using QUANTI-Blue™ kit (Cat. #: rep-qb1, Invivogen, San Diego, Calif., USA) at a wavelength of 640 nm, a detection medium that turns purple or blue in the presence of alkaline phosphatase.
HEK293-Blue-hTLR9 cells were incubated at a density of 250,000˜450,000 cells/mL in a volume of 170 μL in a 96-well plate in Dulbecco's Modified Eagle's medium (DMEM) containing 4.5 g/L glucose, 50 U/mL penicillin, […], […], 2 mM L-glutamine, 10% (v/v) heat-inactivated fetal bovine serum with addition of 20 μL test compound in a serial dilution in the presence of final DMSO at 1% and 10 μL of 20 uM ODN2006 in above DMEM, perform incubation under 37° C. in a CO2 incubator for 20 hrs. Then 20 μL of the supernatant from each well was incubated with 180 μL Quanti-blue substrate solution at 37° C. for 2 h and the absorbance was read at 620˜655 nm using a spectrophotometer. The signaling pathway that TLR9 activation leads to downstream NE-κB activation has been widely accepted, and therefore similar reporter assay was modified for evaluating TLR9 antagonist.

T1 sequence (P10635 whole entry): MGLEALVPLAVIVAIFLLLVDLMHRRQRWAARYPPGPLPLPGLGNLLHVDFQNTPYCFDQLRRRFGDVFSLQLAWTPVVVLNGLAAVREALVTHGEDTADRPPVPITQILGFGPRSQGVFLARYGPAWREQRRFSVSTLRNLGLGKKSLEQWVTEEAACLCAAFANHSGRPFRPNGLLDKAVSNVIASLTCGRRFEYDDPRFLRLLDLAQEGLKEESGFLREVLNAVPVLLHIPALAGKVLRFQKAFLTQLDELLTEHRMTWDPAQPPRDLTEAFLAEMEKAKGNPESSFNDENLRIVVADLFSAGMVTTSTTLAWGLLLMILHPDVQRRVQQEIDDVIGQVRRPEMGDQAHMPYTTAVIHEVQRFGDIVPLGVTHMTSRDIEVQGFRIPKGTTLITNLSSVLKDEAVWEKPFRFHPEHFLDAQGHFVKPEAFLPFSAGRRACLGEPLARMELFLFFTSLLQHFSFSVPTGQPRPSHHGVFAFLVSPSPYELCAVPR

As a reminder, the inhibition is the drop in the measured response relative to a control, in per cent. Regarding `CNc1cc(N2CCN(C[C@H]3CN(c4ccc(C#N)c5ncccc45)C[C@@H](C)O3)CC2)cc(C)n1` [Example 42, 5-[(2R,6S)-2-methyl-6-[[4-[2-methyl-6-(methylamino)-4-pyridyl]piperazin-1-yl]methyl]morpholin-4-yl]quinoline-8-carbonitrile], the inhibition at 10 min, 10 μM on CYP2D6 was -0.5%. Moreover, the IC50 at hTLR9 is less than 32 nM.
Regarding `Cc1cc(C2CCN(C[C@H]3CN(c4ccc(C#N)c5ncccc45)C[C@@H](C)O3)CC2)cc(N)n1` [Example 43, 5-[(2S,6R)-2-[[4-(2-amino-6-methyl-4-pyridyl)-1-piperidyl]methyl]-6-methyl-morpholin-4-yl]quinoline-8-carbonitrile], the inhibition at 10 min, 10 μM on CYP2D6 is -13%. For the same compound, at hTLR9, the IC50 turned out to be 54 nM.
As for `Cc1cc(N2CC3(CN(C[C@H]4CN(c5ccc(C#N)c6ncccc56)C[C@@H](C)O4)C3)C2)cc(C(C)O)n1` (stereo partly drawn) [Example 44, 5-[(2S,6R)-2-[[2-[2-(1-hydroxyethyl)-6-methyl-4-pyridyl]-2,6-diazaspiro[3.3]heptan-6-yl]methyl]-6-methyl-morpholin-4-yl]quinoline-8-carbonitrile], at CYP2D6, the inhibition at 10 min, 10 μM is 5%. The IC50 on hTLR9 is less than 32 nM.
`C[C@@H]1CN(c2ccc(C#N)c3ncccc23)C[C@H](CN2CCN(c3cc(N)nc(CO)c3)CC2)O1` [Example 45, 5-[(2S,6R)-2-[[4-[2-amino-6-(hydroxymethyl)-4-pyridyl]piperazin-1-yl]methyl]-6-methyl-morpholin-4-yl]quinoline-8-carbonitrile]: at CYP2D6, the inhibition at 10 min, 10 μM is -2.5%. The IC50 on hTLR9 worked out at 91 nM.
On to `CC(O)c1cc(N2CC3(CN(C[C@H]4CN(c5ccc(C#N)c6ncccc56)C[C@@H](C)O4)C3)C2)ccn1` (stereo partly drawn) [Example 46, 5-[(2S,6R)-2-[[2-[2-(1-hydroxyethyl)-4-pyridyl]-2,6-diazaspiro[3.3]heptan-6-yl]methyl]-6-methyl-morpholin-4-yl]quinoline-8-carbonitrile], for which the inhibition at 10 min, 10 μM on CYP2D6 was 17%. Besides, the IC50 at hTLR9 was less than 32 nM.
In the case of `Cc1cc(N2CCN(C[C@H]3CN(c4ccc(C#N)c5ncccc45)C[C@@H](C)O3)CC2)cc(CO)n1` [Example 50], the inhibition at 10 min, 10 μM on CYP2D6 stood at 10.5%. In addition, on hTLR9, the IC50 was found to be 134 nM.
As for `C[C@@H]1CN(c2ccc(C#N)c3ncccc23)C[C@H](CN2CC3(C2)CN(c2ccnc(CO)c2)CCO3)O1` [Example 51], the inhibition at 10 min, 10 μM at CYP2D6 is -15.5%. The IC50 on hTLR9 stood at 35 nM.
